{"source": "patent US20230041138A1", "about": "“TREATMENT OF HIS HYPORESPONDERS” (NewAmsterdam Pharma B.V. (Dutch Registration No. 55971946), priority 2021, published 2023)", "assay": "Phase 2 study: PK follow-up, plasma obicetrapib concentrations after end of treatment", "format": "in vivo, human", "description": "The screening period for this study took up to 2-weeks. Afterwards patients were randomized to placebo, 5 mg obicetrapib or 10 mg obicetrapib for an 8-week treatment period. After the treatment period, patients continued for a 4-week safety follow-up and a 15-week PK follow-up.\nThe primary outcome measure was LDL-C (percent change). Secondary outcome measures included ApoB, Non-HDL-C and HDL-C (percent change). The Intent-to-Treat (ITT) Population included all participants randomized into the study. The Modified ITT (mITT) Population included all participants in the ITT Population who receive at least 1 dose of any study drug and have a baseline value for the LDL-C assessment. The Safety Population included all participants who receive at least 1 dose of any study drug. The mITT Population was the primary population for the efficacy analyses. The primary efficacy analysis of the percent change in LDL-C was performed using a mixed model for repeated measures (MMRM) approach. In order to maintain the overall Type I error rate, the secondary efficacy endpoints were tested sequentially at the 0.05 significance level according to the pre-specified order of hierarchy. All safety endpoints were summarized descriptively. No statistical inference was applied to the safety endpoints. Plasma obicetrapib concentrations were summarized with descriptive statistics based on the […].", "data": [{"smiles": "CCOC(=O)N1c2ccc(C(F)(F)F)cc2[C@@H](N(Cc2cc(C(F)(F)F)cc(C(F)(F)F)c2)c2ncc(OCCCC(=O)O)cn2)C[C@H]1CC", "note": "[Obicetrapib, (2R,4S)-4-{[3,5-bis(trifluoromethyl)benzyl]-[5-(3-carboxypropoxy)pyrimidin-2-yl]amino}-2-ethyl-6-trifluoromethyl-3,4-dihydro-2H-quinoline-1-carboxylic acid ethyl ester]", "values": [{"measurement": "Plasma obicetrapib levels, median decrease after end-of-treatment", "setting": "5 mg group, 4 weeks after end-of-treatment", "result": 92, "unit": "%"}, {"measurement": "Plasma obicetrapib levels, median decrease after end-of-treatment", "setting": "5 mg group, 8 weeks after end-of-treatment", "result": 98, "unit": "%"}, {"measurement": "Plasma obicetrapib levels, median decrease after end-of-treatment", "setting": "5 mg group, 15 weeks after end-of-treatment", "result": 99, "unit": "%"}, {"measurement": "Plasma obicetrapib levels, median decrease after end-of-treatment", "setting": "10 mg group, 4 weeks after end-of-treatment", "result": 93, "unit": "%"}, {"measurement": "Plasma obicetrapib levels, median decrease after end-of-treatment", "setting": "10 mg group, 8 weeks after end-of-treatment", "result": 98, "unit": "%"}, {"measurement": "Plasma obicetrapib levels, median decrease after end-of-treatment", "setting": "10 mg group, 15 weeks after end-of-treatment", "result": 99, "unit": "%"}]}]}
